Measured values from patent publication US20250304567A1, “PYRROLIDIONE DERIVATIVES AS INHIBITORS OF NF KAPPA B INDUCING KINASE” (priority 2022, published 2025).
Like-named read-outs stand apart in the source and are kept apart here.

Key:
[1] = molecular target: Recombinant Human NF-kappaB-Inducing Kinase (NIK/MAP3K14) (Homo sapiens, UniProt Q99558); assay: Inhibition of auto-phosphorylation of recombinant human NIK/MAP3K14 activity (AlphaScreen); format: biochemical; conditions: 5 μM ATP, 1 nM NIK, average if tested more than once
Recombinant Human NF-kappaB-Inducing Kinase (NIK/MAP3K14), sequence (Q99558 whole entry): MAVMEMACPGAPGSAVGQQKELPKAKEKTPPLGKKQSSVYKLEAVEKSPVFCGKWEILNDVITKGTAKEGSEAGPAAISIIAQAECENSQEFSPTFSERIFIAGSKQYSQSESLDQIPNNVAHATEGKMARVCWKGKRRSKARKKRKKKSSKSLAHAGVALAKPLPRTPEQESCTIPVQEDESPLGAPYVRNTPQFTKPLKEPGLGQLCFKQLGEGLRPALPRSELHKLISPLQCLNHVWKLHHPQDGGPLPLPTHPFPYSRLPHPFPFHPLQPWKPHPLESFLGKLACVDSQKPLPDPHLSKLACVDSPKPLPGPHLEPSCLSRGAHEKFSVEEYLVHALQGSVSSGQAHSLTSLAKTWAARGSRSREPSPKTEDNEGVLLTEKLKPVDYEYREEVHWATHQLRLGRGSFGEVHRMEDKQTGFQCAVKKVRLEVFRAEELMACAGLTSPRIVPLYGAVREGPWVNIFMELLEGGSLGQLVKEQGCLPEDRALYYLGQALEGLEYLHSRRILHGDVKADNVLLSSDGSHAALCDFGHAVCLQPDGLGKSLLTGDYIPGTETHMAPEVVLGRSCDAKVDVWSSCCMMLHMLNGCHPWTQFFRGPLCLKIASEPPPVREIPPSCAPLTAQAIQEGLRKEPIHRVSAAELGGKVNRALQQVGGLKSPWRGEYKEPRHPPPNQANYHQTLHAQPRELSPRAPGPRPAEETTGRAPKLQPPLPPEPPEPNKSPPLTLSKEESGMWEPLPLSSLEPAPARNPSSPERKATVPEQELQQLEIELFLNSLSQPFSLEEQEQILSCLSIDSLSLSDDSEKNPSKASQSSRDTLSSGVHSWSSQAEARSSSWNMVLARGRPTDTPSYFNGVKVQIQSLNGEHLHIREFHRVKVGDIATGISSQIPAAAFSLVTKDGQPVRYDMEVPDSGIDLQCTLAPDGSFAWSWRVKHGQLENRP
In short: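 AlphaScreen detection of phospho-Ser176/180 after 1 nM GST-NIK auto-phosphorylates for 2 h at 25 °C with 5 μM ATP (50 mM Tris pH 7.5, 0.7% DMSO). IC50s come from sigmoidal curves of % inhibition against log dose, using enzyme-free, ATP-free low controls and full-activity high controls.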

[2] = tested on: p-IKKa levels in L363 (NIK translocated multiple myeloma) cells; assay: Effect of compounds on p-IKKa levels in L363 (NIK translocated multiple myeloma) cells (AlphaLISA SureFire Ultra p-IKKa Ser176/180); format: cell-based, human; conditions: average if tested more than once, read-out: Assay 2 IC50
In short: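 Phospho-IKKa (Ser176/180) in lysates quantified by AlphaLISA after 6 h compound exposure, 11-point threefold dilutions, 0.3% DMSO. L363 cells were pre-stimulated overnight and assayed with 250 ng/ml BAFF and 10 μM MG132; % inhibition fitted sigmoidally for IC50, duplicate curves.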

[3] = Homo sapiens, L-363, p-IKKa levels in L363 cells

| SMILES | IC50 [1] | IC50 [2, 3] | IC50 ([2]; p-IKKa levels in L363 cells) |
| --- | --- | --- | --- |
| CN1CC[C@@](O)(c2cccc(-c3nc(-c4ccnc(Nc5cnn6ccccc56)n4)cs3)c2)C1=O [Example 264, (R)-3-Hydroxy-1-methyl-3-(3-(4-(2-(pyrazolo[1,5-a]pyridin-3-ylamino)pyrimidin-4-yl)thiazol-2-yl)phenyl)pyrrolidin-2-one] | < 100 nM | < 100 nM | – |
| Cc1ccc(CNc2nccc(-c3csc(-c4cccc([C@]5(O)CCN(C)C5=O)c4)n3)n2)nc1 [Example 203] | < 100 nM | > 501 nM | – |
| CN1CC[C@@](O)(c2cccc(-c3nc(-c4ccnc(Nc5ccnn5C)n4)cs3)c2)C1=O [Example 176] | < 100 nM | < 100 nM | – |
| Cc1ccc(CNc2nccc(-c3csc(-c4cccc([C@]5(O)CCN(C)C5=O)c4)n3)n2)cn1 [Example 204] | < 100 nM | > 501 nM | – |
| CNc1nccc(-c2csc(-c3cccc([C@]4(O)CCN(C)C4=O)c3)n2)n1 [Example 170] | 100 to 500 nM | > 501 nM | – |
| CN1CC[C@@](O)(c2cccc(-c3nc(-c4ccnc(NC5CCN(C6COC6)CC5)n4)cs3)c2)C1=O [Example 228] | > 501 nM | > 501 nM | – |
| CN1CC[C@@](O)(c2cccc(-c3nc(-c4ccnc(Nc5cnn(C6CCOC6)c5)n4)cs3)c2)C1=O (single isomer, unassigned) [Example 18] | < 100 nM | 100 to 500 nM | – |
| CC(Nc1nccc(-c2csc(-c3cccc([C@]4(O)CCN(C)C4=O)c3)n2)n1)c1ccn(C)n1 (stereo partly drawn) [Example 112, (R)-3-hydroxy-1-methyl-3-(3-(4-(2-(((R,S)-1-(1-methyl-1H-pyrazol-3-yl)ethyl)amino)pyrimidin-4-yl)thiazol-2-yl)phenyl)pyrrolidin-2-one] | < 100 nM | > 501 nM | – |
| CN1CC[C@@](O)(c2cccc(-c3nc(-c4ccnc(NC5(c6ncccn6)CC5)n4)cs3)c2)C1=O [Example 226] | > 501 nM | > 501 nM | – |
| Cc1nn(CC(F)F)cc1Nc1nccc(-n2ccc(-c3cc([C@]4(O)CCN(C)C4=O)ccn3)n2)n1 [Example 292, (R)-3-(2-(1-(2-((1-(2,2-Difluoroethyl)-3-methyl-1H-pyrazol-4-yl)amino)pyrimidin-4-yl)-1H-pyrazol-3-yl)pyridin-4-yl)-3-hydroxy-1-methylpyrrolidin-2-one] | < 100 nM | < 100 nM | – |
| CCOc1cn(C)nc1Nc1nccc(-c2csc(-c3cccc([C@]4(O)CCN(C)C4=O)c3)n2)n1 [Example 78, (R)-3-(3-(4-(2-((4-ethoxy-1-methyl-1H-pyrazol-3-yl)amino)pyrimidin-4-yl)thiazol-2-yl)phenyl)-3-hydroxy-1-methylpyrrolidin-2-one] | < 100 nM | < 100 nM | – |
| CN1CC[C@@](O)(c2cccc(-c3coc(-c4ccnc(Nc5ccn(C)n5)n4)n3)c2)C1=O [Example 4, (R)-3-hydroxy-1-methyl-3-(3-(2-(2-((1-methyl-1H-pyrazol-3-yl)amino)pyrimidin-4-yl)oxazol-4-yl)phenyl)pyrrolidin-2-one] | < 100 nM | > 501 nM | – |
| CN1CC[C@@](O)(c2cccc(-c3nc(-c4ccnc(Nc5cnn(C6CCOC6)c5)n4)cs3)c2)C1=O (single isomer, unassigned) [Example 19] | < 100 nM | – | < 100 nM |
| C[C@H](Nc1nccc(-c2nc(-c3cc([C@]4(O)CCN(C)C4=O)ccn3)cs2)n1)c1ccnn1C [Example 290, (R)-3-Hydroxy-1-methyl-3-(2-(2-(2-(((S)-1-(1-methyl-1H-pyrazol-5-yl)ethyl)amino)pyrimidin-4-yl)thiazol-4-yl)pyridin-4-yl)pyrrolidin-2-one] | < 100 nM | 100 to 500 nM | – |
| Cc1cccc(CNc2nccc(-c3csc(-c4cccc([C@]5(O)CCN(C)C5=O)c4)n3)n2)n1 [Example 205] | < 100 nM | > 501 nM | – |
| CN1CC[C@@](O)(c2cccc(-c3nc(-c4ccnc(Nc5ccn(CC6CC6)n5)n4)cs3)c2)C1=O [Example 288, (R)-3-(3-(4-(2-((1-(cyclopropylmethyl)-1H-pyrazol-3-yl)amino)pyrimidin-4-yl)thiazol-2-yl)phenyl)-3-hydroxy-1-methylpyrrolidin-2-one] | < 100 nM | 100 to 500 nM | – |

| SMILES | IC50 [1] | IC50 [2, 3] | IC50 ([2]; p-IKKa levels in L363 cells) |
| --- | --- | --- | --- |
| C[C@@H](Nc1nccc(-n2ccc(-c3cccc([C@]4(O)CCN(C)C4=O)c3)n2)n1)c1cnn(C)c1 (single isomer, unassigned) [Example 94] | < 100 nM | > 501 nM | – |
| CN1CC[C@@](O)(c2ccnc(-c3ccn(-c4ccnc(Nc5ccn(C)n5)n4)n3)c2)C1=O (racemic) [Example 30, (R,S)-3-Hydroxy-1-methyl-3-(2-(1-(2-((1-methyl-1H-pyrazol-3-yl)amino)pyrimidin-4-yl)-1H-pyrazol-3-yl)pyridin-4-yl)pyrrolidin-2-one] | < 100 nM | 100 to 500 nM | – |
| CN1CC[C@@](O)(c2cccc(-c3nc(-c4ccnc(Nc5cn(C)nc5OCC(F)(F)F)n4)cs3)c2)C1=O [Example 98, (R)-3-hydroxy-1-methyl-3-(3-(4-(2-((1-methyl-3-(2,2,2-trifluoroethoxy)-1H-pyrazol-4-yl)amino)pyrimidin-4-yl)thiazol-2-yl)phenyl)pyrrolidin-2-one] | < 100 nM | < 100 nM | – |
| CN1CC[C@@](O)(c2cccc(-c3ccn(-c4ccnc(Nc5ccn(C)n5)n4)n3)c2)C1=O [Example 2, (R)-3-hydroxy-1-methyl-3-(3-(1-(2-((1-methyl-1H-pyrazol-3-yl)amino)pyrimidin-4-yl)-1H-pyrazol-3-yl)phenyl)pyrrolidin-2-one] | < 100 nM | 100 to 500 nM | – |
| CN1CC[C@@](O)(c2cccc(-c3nc(-c4ccnc(NC5CCN(c6cnn(C)c6)C5)n4)cs3)c2)C1=O (stereo partly drawn) [Example 120, (R)-3-hydroxy-1-methyl-3-(3-(4-(2-(((R,S)-1-(1-methyl-1H-pyrazol-4-yl)pyrrolidin-3-yl)amino)pyrimidin-4-yl)thiazol-2-yl)phenyl)pyrrolidin-2-one] | 100 to 500 nM | > 501 nM | – |
| COc1cc(Nc2nccc(-c3nc(-c4cccc([C@]5(O)CCN(C)C5=O)c4)cs3)n2)n(C)n1 [Example 84, (R)-3-hydroxy-3-(3-(2-(2-((3-methoxy-1-methyl-1H-pyrazol-5-yl)amino)pyrimidin-4-yl)thiazol-4-yl)phenyl)-1-methylpyrrolidin-2-one] | > 501 nM | > 501 nM | – |
| Cc1nocc1Nc1nccc(-c2csc(-c3cccc([C@]4(O)CCN(C)C4=O)c3)n2)n1 [Example 275, (R)-3-Hydroxy-1-methyl-3-(3-(4-(2-((3-methylisoxazol-4-yl)amino)pyrimidin-4-yl)thiazol-2-yl)phenyl)pyrrolidin-2-one] | < 100 nM | < 100 nM | – |
| CN1CCC(O)(c2cc(F)cc(-c3csc(-c4ccnc(Nc5ccn(C)n5)n4)n3)c2)C1=O (single isomer, unassigned) [Example 26, 3-(3-fluoro-5-(2-(2-((1-methyl-1H-pyrazol-3-yl)amino)pyrimidin-4-yl)thiazol-4-yl)phenyl)-3-hydroxy-1-methylpyrrolidin-2-one] | > 501 nM | – | > 501 nM |
| CN1CC[C@@](O)(c2cccc(-c3nc(-c4ccnc(NC5CCC5)n4)cs3)c2)C1=O [Example 131, (R)-3-(3-(4-(2-(cyclobutylamino)pyrimidin-4-yl)thiazol-2-yl)phenyl)-3-hydroxy-1-methylpyrrolidin-2-one] | < 100 nM | > 501 nM | – |
| Cc1ccnc(CNc2nccc(-c3csc(-c4cccc([C@]5(O)CCN(C)C5=O)c4)n3)n2)n1 [Example 114, (R)-3-hydroxy-1-methyl-3-(3-(4-(2-(((4-methylpyrimidin-2-yl)methyl)amino)pyrimidin-4-yl)thiazol-2-yl)phenyl)pyrrolidin-2-one] | 100 to 500 nM | > 501 nM | – |
| CN1CC[C@@](O)(c2cccc(-c3nc(-c4ccnc(Nc5cc6c(nn5)CCC6)n4)cs3)c2)C1=O [Example 71, (R)-3-(3-(4-(2-((6,7-dihydro-5H-cyclopenta[c]pyridazin-3-yl)amino)pyrimidin-4-yl)thiazol-2-yl)phenyl)-3-hydroxy-1-methylpyrrolidin-2-one] | < 100 nM | > 501 nM | – |
| CN1CC[C@@](O)(c2cccc(-c3nc(-c4ccnc(NCC5(O)CC5)n4)cs3)c2)C1=O [Example 240] | 100 to 500 nM | > 501 nM | – |
| C[C@H](Nc1nccc(-c2csc(-c3cccc([C@]4(O)CCN(C)C4=O)c3)n2)n1)c1ccccn1 [Example 186] | 100 to 500 nM | > 501 nM | – |
| CC(Nc1nccc(-c2csc(-c3cccc([C@]4(O)CCN(C)C4=O)c3)n2)n1)c1ncco1 (stereo partly shown) [Example 199] | < 100 nM | > 501 nM | – |
| CN1CC[C@@](O)(c2cccc(-c3nc(-c4ccnc(Nc5cnn(CC6CC6)c5)n4)cs3)c2)C1=O [Example 287, (R)-3-(3-(4-(2-((1-(cyclopropylmethyl)-1H-pyrazol-4-yl)amino)pyrimidin-4-yl)thiazol-2-yl)phenyl)-3-hydroxy-1-methylpyrrolidin-2-one] | < 100 nM | 100 to 500 nM | – |
| CC(C)n1cc(Nc2nccc(-c3csc(-c4cccc([C@]5(O)CCN(C)C5=O)c4)n3)n2)cn1 [Example 276, (R)-3-Hydroxy-3-(3-(4-(2-((1-isopropyl-1H-pyrazol-4-yl)amino)pyrimidin-4-yl)thiazol-2-yl)phenyl)-1-methylpyrrolidin-2-one] | < 100 nM | < 100 nM | – |
